Source: ChEMBL document CHEMBL1781897, “Synthesis, biological evaluation of prenylflavonoids as vasorelaxant and neuroprotective agents” (Bioorg Med Chem Lett, 2009)

Experiments:
PC-12 [1] = test: Neuroprotective activity against oxygen-glucose deprivation-induced cell injury in rat PC12 cells assessed as cell viability at 1 uM; type: functional; details: read-out: Activity
Aorta [2] = test: Vasorelaxant activity in rat aortic ring assessed as inhibition of phenylephrine-induced contraction relative to control; type: functional
PC-12 [3] = test: Neuroprotective activity against oxygen-glucose deprivation-induced cell injury in rat PC12 cells assessed as cell viability; type: functional, cell-based
PC-12 [4] = test: Neuroprotective activity against oxygen-glucose deprivation-induced cell injury in rat PC12 cells assessed as cell viability at 30 uM; type: functional; details: read-out: Activity
Aorta [5] = test: Vasorelaxant activity in rat aortic ring assessed as inhibition of phenylephrine-induced contraction; type: functional, tissue-based

Row | EC50 (Aorta [5]) | Compound | viability at 1 µM (PC-12 [1]) | Emax (Aorta [2]) | Activity (PC-12 [3]) | viability at 30 µM (PC-12 [4])
1 | – | CC(C)=CCc1c(O)cc(O)c2c1O/C(=C\c1ccc(O)cc1)C2=O | 81.6% | 74.5% | – | –
2 | – | CC(C)=CCc1c(O)cc(O)c2c1O/C(=C\c1ccc(O)cc1O)C2=O | 90.4% | 30.5% | – | –
3 | – | COc1cc(C2CC(=O)c3c(O)cc(O)c(CC=C(C)C)c3O2)ccc1O (centres undefined) | 94% | – | Dose-dependent effect | –
4 | – | O=c1c(O)c(-c2ccc(O)c(O)c2)oc2cc(O)cc(O)c12 [QUERCETIN] | – | 91.3% | – | –
5 | – | CC1=NN(c2ccccc2)C(=O)C1 [EDARAVONE] | – | – | – | 93.2%
6 | – | CC(C)=CCc1c(O)cc(O)c2c(=O)cc(-c3ccc(O)c(O)c3)oc12 | 91.5% | 62.5% | – | –
7 | 25 µM | COc1cc(C2CC(=O)c3c(O)cc(O)c(CC=C(C)C)c3O2)cc(OC)c1OC (centres undefined) | 89.1% | 66.3% | – | –
8 | – | CC(C)=CCc1c(O)cc(O)c2c(=O)cc(-c3ccc(O)c(O)c3O)oc12 | 88.6% | – | – | –
9 | 8.5 µM | CC(C)=CCc1c(O)cc(O)c(C(=O)/C=C/c2ccc(O)cc2)c1O [DEMETHYLXANTHOHUMOL] | 86.7% | 81.4% | – | –
10 | 176 µM | CC(C)=CCc1c(O)cc(O)c2c(=O)cc(-c3ccc(O)cc3O)oc12 | 93.5% | 91.5% | Dose-dependent effect | –
11 | – | CC(C)=CCc1c(O)cc(O)c2c1OC(c1cccc(Br)c1)CC2=O (centres undefined) | 88.1% | – | – | –
12 | 72.7 µM | CC(C)=CCc1c(O)cc(O)c2c1OC(c1ccc(O)cc1)CC2=O (centres undefined) [SOPHORAFLAVANONE B] | 89.3% | 101% | – | –
13 | – | CC(C)=CCc1c(O)cc(O)c2c1OC(c1ccc(O)c(O)c1O)CC2=O (centres undefined) | 90.3% | 69.7% | – | –
14 | 9.3 µM | CC(C)=CCc1c(O)cc(O)c2c1OC(c1ccc(O)cc1O)CC2=O (racemic) | 94.8% | 94.9% | Dose-dependent effect | –
15 | 82 µM | COc1cc([C@@H]2CC(=O)c3c(O)cc(O)cc3O2)ccc1O (racemic) [HOMOERIODICTYOL] | 89.1% | 74.9% | – | –
